# Assay results as given in patent US20260315604A1, “OTUB1 Small-Molecule Binders and OTUB1-recruiting Deubiquitinase-targeting Chimeras (DUBTACs)” (ICAHN SCHOOL OF MEDICINE AT MOUNT SINAI, priority 2023, published 2026).
# Target: T1, Human OTUB1 wild-type (Homo sapiens, UniProt Q96FW1)
# T1 construct: His tag (N); made in house; host or cells: E. coli BL21-CodonPlus (DE3)-RIPIL
# Test: Covalent modification of OTUB1 (adduct formation), mass spectrometry-based assay (OTUB1 covalent binders; selected CFTR or cGAS based bivalent compounds)
# Assay type: binding
# Conditions: covalent adduct formation with OTUB1 protein
# How it was run: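 His-tagged human OTUB1 (10 μM), E. coli-expressed, incubated with compound (2500 μM) in 50 mM Tris-HCl pH 7.5, 150 mM NaCl, 0.5 mM TCEP for 1 h at room temperature. Adduct detected by intact-protein LC/ESI-TOF mass spectrometry after buffer exchange; duplicates.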
# T1 sequence (Q96FW1 whole entry): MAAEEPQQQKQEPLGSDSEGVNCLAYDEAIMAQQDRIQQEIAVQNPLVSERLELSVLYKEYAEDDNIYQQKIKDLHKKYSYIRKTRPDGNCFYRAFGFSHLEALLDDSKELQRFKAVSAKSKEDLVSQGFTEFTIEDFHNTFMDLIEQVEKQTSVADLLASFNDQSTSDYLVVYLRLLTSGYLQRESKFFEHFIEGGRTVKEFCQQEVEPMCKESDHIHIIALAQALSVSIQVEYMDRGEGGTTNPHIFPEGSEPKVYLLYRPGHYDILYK
row,% of OTUB1 modified [%],Compound
1,98,"CN(C)CC#CC(=O)N1CC(C(=O)Nc2cc3ccccc3s2)C1 [XS224-106, N-(benzo[b]thiophen-2-yl)-1-(4-(dimethylamino)but-2-ynoyl)azetidine-3-carboxamide]"
2,95,"CC(C)c1ccc(N2CCN(C(=O)/C=C/CN(C)C)CC2=O)s1 [XS175-64, (E)-4-(4-(dimethylamino)but-2-enoyl)-1-(5-isopropylthiophen-2-yl)piperazin-2-one]"
3,5,"COc1ccc2c(c1)CN(C(=O)/C=C/CN(C)C)C2 [XS209-25, (E)-4-(dimethylamino)-1-(5-methoxyisoindolin-2-yl)but-2-en-1-one]"
4,70,"CN(C)C/C=C/C(=O)N1C2CC1CN(C(=O)c1csc3ccccc13)C2 [XS190-47, (E)-1-(3-(benzo[b]thiophene-3-carbonyl)-3,6-diazabicyclo[3.1.1]heptan-6-yl)-4-(dimethylamino)but-2-en-1-one]"
5,60,"CN(C)C/C=C/C(=O)N1CC(C(=O)Nc2cc3ccccc3s2)C1 [XS185-90, (E)-N-(benzo[b]thiophen-2-yl)-1-(4-(dimethylamino)but-2-enoyl)azetidine-3-carboxamide]"
6,100,"Cc1cccc(N2CC3CCC(C2)N3C(=O)CCl)n1 [XS165-121, 2-chloro-1-(3-(6-methylpyridin-2-yl)-3,8-diazabicyclo[3.2.1]octan-8-yl)ethan-1-one]"
7,60,"CC(C)c1ccc(NC(=O)C2CN(C(=O)C#CC(C)(C)N(C)C)C2)s1 [XS224-117, 1-(4-(dimethylamino)-4-methylpent-2-ynoyl)-N-(5-isopropylthiophen-2-yl)azetidine-3-carboxamide]"
8,2,"Cc1ccc(NC(=O)C2CC3CCC(C2)N3C(=O)/C=C/CN(C)C)s1 (stereo not drawn) [XS209-122, (E)-8-(4-(dimethylamino)but-2-enoyl)-N-(5-methylthiophen-2-yl)-8-azabicyclo[3.2.1]octane-3-carboxamide]"
9,100,"CN(C)C/C=C/C(=O)N1CCN(c2cc3c(s2)CCCC3)C(=O)C1 [XS175-186, (E)-4-(4-(dimethylamino)but-2-enoyl)-1-(4,5,6,7-tetrahydrobenzo[b]thiophen-2-yl)piperazin-2-one]"
10,70,"Cc1ccc(N2CCN(C(=O)/C=C/CN3CCCCC3)CC2=O)s1 [XS165-170, (E)-1-(5-methylthiophen-2-yl)-4-(4-(piperidin-1-yl)but-2-enoyl)piperazin-2-one]"
11,35,"Cc1ccc(N2CC3(CN(C(=O)/C=C/CN(C)C)C3)C2)s1 [XS185-3, (E)-4-(dimethylamino)-1-(6-(5-methylthiophen-2-yl)-2,6-diazaspiro[3.3]heptan-2-yl)but-2-en-1-one]"
12,70,"Cc1ccc(N2CCN(C(=O)/C=C/CN3CCCC3)CC2=O)s1 [XS165-154, (E)-1-(5-methylthiophen-2-yl)-4-(4-(pyrrolidin-1-yl)but-2-enoyl)piperazin-2-one]"
13,55,"CN(C)C/C=C/C(=O)N1CC(O)(C(=O)Nc2cc3c(s2)CCCC3)C1 [XS209-176, (E)-1-(4-(dimethylamino)but-2-enoyl)-3-hydroxy-N-(4,5,6,7-tetrahydrobenzo[b]thiophen-2-yl)azetidine-3-carboxamide]"
14,75,"CN(C)C(C)(C)C#CC(=O)N1CC(C(=O)Nc2cc3c(s2)CCCC3)C1 [XS224-109, 1-(4-(dimethylamino)-4-methylpent-2-ynoyl)-N-(4,5,6,7-tetrahydrobenzo[b]thiophen-2-yl)azetidine-3-carboxamide]"
15,70,"Cc1ccc(N2CCN(C(=O)/C=C/CN(C)C)CC2=O)s1 [XS165-105, (E)-4-(4-(dimethylamino)but-2-enoyl)-1-(5-methylthiophen-2-yl)piperazin-2-one]"
16,10,"Cc1cnc(NC(=O)C2(C)CN(C(=O)/C=C/CN(C)C)C2)o1 [XS209-23, (E)-1-(4-(dimethylamino)but-2-enoyl)-3-methyl-N-(5-methyloxazol-2-yl)azetidine-3-carboxamide]"
17,18,"CN(C)C/C=C/C(=O)N1CC2(CC(C(=O)Nc3cc4c(s3)CCCC4)C2)C1 [XS185-114, (E)-2-(4-(dimethylamino)but-2-enoyl)-N-(4,5,6,7-tetrahydrobenzo[b]thiophen-2-yl)-2-azaspiro[3.3]heptane-6-carboxamide]"
18,35,"CC(=O)N1CC2(CCC(C(=O)N3CC4CC(C3)N4C(=O)/C=C/CN(C)C)CC2)C1 [XS209-54, (E)-1-(3-(2-acetyl-2-azaspiro[3.5]nonane-7-carbonyl)-3,6-diazabicyclo[3.1.1]heptan-6-yl)-4-(dimethylamino)but-2-en-1-one]"
19,100,"Cc1cccc(N2CCN(C(=O)CCl)CC2=O)n1 [XS165-120, 4-(2-chloroacetyl)-1-(6-methylpyridin-2-yl)piperazin-2-one]"
20,40,"CC(=O)N1CCC2(CCC(C(=O)N3CC4CC(C3)N4C(=O)/C=C/CN(C)C)CC2)C1 (stereo not drawn) [XS209-53, (E)-1-(3-(2-acetyl-2-azaspiro[4.5]decane-8-carbonyl)-3,6-diazabicyclo[3.1.1]heptan-6-yl)-4-(dimethylamino)but-2-en-1-one]"

row,% of OTUB1 modified [%],Compound
1,60,"CCCC(=O)N1CC2CC(C1)N2C(=O)/C=C/CN(C)C [XS209-40, (E)-1-(3-butyryl-3,6-diazabicyclo[3.1.1]heptan-6-yl)-4-(dimethylamino)but-2-en-1-one]"
2,30,"Cc1ccc(C(=O)N2CC3(CN(C(=O)/C=C/CN(C)C)C3)C2)s1 [XS185-69, (E)-4-(dimethylamino)-1-(6-(5-methylthiophene-2-carbonyl)-2,6-diazaspiro[3.3]heptan-2-yl)but-2-en-1-one]"
3,80,"CN(C)C/C=C/C(=O)N1C2CCC1C(=O)N(C1CCCC1)C2 (stereo not drawn) [XS190-144, (E)-3-cyclopentyl-8-(4-(dimethylamino)but-2-enoyl)-3,8-diazabicyclo[3.2.1]octan-2-one]"
4,8,"CC(C)C(=O)N1CC2CC(C1)N2C(=O)/C=C/CN(C)C [XS197-50, (E)-4-(dimethylamino)-1-(3-isobutyryl-3,6-diazabicyclo[3.1.1]heptan-6-yl)but-2-en-1-one]"
5,75,"CN(C)C/C=C/C(=O)N1C2CCC1C(=O)N(C1CCC1)C2 (stereo not drawn) [XS197-70, (E)-3-cyclobutyl-8-(4-(dimethylamino)but-2-enoyl)-3,8-diazabicyclo[3.2.1]octan-2-one]"
6,95,"Cc1ccc(N2CC3CCC(C2=O)N3C(=O)C#CCN(C)C)s1 (stereo not drawn) [XS197-185, 8-(4-(dimethylamino)but-2-ynoyl)-3-(5-methylthiophen-2-yl)-3,8-diazabicyclo[3.2.1]octan-2-one]"
7,40,"CN(C)C/C=C/C(=O)N1CCN(c2cc3ccccc3o2)C(=O)C1 [XS185-78, (E)-1-(benzofuran-2-yl)-4-(4-(dimethylamino)but-2-enoyl)piperazin-2-one]"
8,10,"Cc1ccc(N2CCN(C(=O)/C(C#N)=C/C(C)(C)C)CC2=O)s1 [XS165-177, (E)-4,4-dimethyl-2-(4-(5-methylthiophen-2-yl)-3-oxopiperazine-1-carbonyl)pent-2-enenitrile]"
9,98,"Cc1ccc(N2CC3CCC(C2=O)N3C(=O)/C=C/CN(C)C)s1 (stereo not drawn) [XS185-75, (E)-8-(4-(dimethylamino)but-2-enoyl)-3-(5-methylthiophen-2-yl)-3,8-diazabicyclo[3.2.1]octan-2-one]"
10,90,"CCCC(=O)N1CC2CC(C1)N2C(=O)C#CCN(C)C [XS209-166, 1-(3-butyryl-3,6-diazabicyclo[3.1.1]heptan-6-yl)-4-(dimethylamino)but-2-yn-1-one]"
11,30,"Cc1cccc(N2CC3CCC(C2=O)N3C(=O)/C=C/CN(C)C)n1 (stereo not drawn) [XS190-181, (E)-8-(4-(dimethylamino)but-2-enoyl)-3-(6-methylpyridin-2-yl)-3,8-diazabicyclo[3.2.1]octan-2-one]"
12,48,"CN(C)C/C=C/C(=O)N1C2CC1CN(C(=O)C1CCCCC1)C2 [XS190-129, (E)-1-(3-(cyclohexanecarbonyl)-3,6-diazabicyclo[3.1.1]heptan-6-yl)-4-(dimethylamino)but-2-en-1-one]"
13,20,"Cc1ccc(C(=O)N2CCN(C(=O)/C=C/CN(C)C)CC2)s1 [XS185-64, (E)-4-(dimethylamino)-1-(4-(5-methylthiophene-2-carbonyl)piperazin-1-yl)but-2-en-1-one]"
14,1,"CN(C)C/C=C/C(=O)N1CC2(C1)CN(c1cc3ccccc3s1)C2 [XS185-46, (E)-1-(6-(benzo[b]thiophen-2-yl)-2,6-diazaspiro[3.3]heptan-2-yl)-4-(dimethylamino)but-2-en-1-one]"
15,90,"Cc1csc(N2CCN(C(=O)/C=C/CN(C)C)CC2=O)c1 [XS175-46, (E)-4-(4-(dimethylamino)but-2-enoyl)-1-(4-methylthiophen-2-yl)piperazin-2-one]"
16,98,"Cc1ccc(N2CC3CCC(C2=O)N3C(=O)C#CC(C)(C)N(C)C)s1 (stereo not drawn) [XS209-74, 8-(4-(dimethylamino)-4-methylpent-2-ynoyl)-3-(5-methylthiophen-2-yl)-3,8-diazabicyclo[3.2.1]octan-2-one]"
17,25,"CN(C)C/C=C/C(=O)N1CC2(CC(C(=O)Nc3cc4ccccc4s3)C2)C1 [XS185-91, (E)-N-(benzo[b]thiophen-2-yl)-2-(4-(dimethylamino)but-2-enoyl)-2-azaspiro[3.3]heptane-6-carboxamide]"
18,90,"CN(C)C/C=C/C(=O)N1C2CCC1C(=O)N(c1ccc(-c3ccccc3)s1)C2 (stereo not drawn) [XS190-45, (E)-8-(4-(dimethylamino)but-2-enoyl)-3-(5-phenylthiophen-2-yl)-3,8-diazabicyclo[3.2.1]octan-2-one]"
19,3,"Cc1csc(NC(=O)C2CCN(C(=O)/C=C/CN(C)C)CC2)c1 [XS175-173, (E)-1-(4-(dimethylamino)but-2-enoyl)-N-(4-methylthiophen-2-yl)piperidine-4-carboxamide]"
